Data set [1] relates to HCV sub-genomic replicon of genotype 1a in replicon cell line W11.8. Nature of the data set: microbe, parasite or virus in culture. Format: cell-based, Hepatitis C virus. Conditions: Hepatitis C virus, W11.8, 96 h, read-out: HCV-Replicon-ELISA-1a IC50. A general note: In antiviral work, replicon cells carry a viral genome segment that copies itself.
A short description of data set [2]: [3H]Thymidine incorporation assay (cytotoxicity, CC50). Conditions: human.

Consider `CC(C)N(c1cc(C#CC2CC2)sc1C(=O)O)C(=O)[C@H]1CC[C@H](C)CC1` [Compound 20, 5-Cyclopropylethynyl-3-[isopropyl-(trans-4-methyl-cyclohexanecarbonyl)-amino]-thiophene-2-carboxylic acid], for which, in data set [1], the IC50 was in the range of 0.1 to 1 µM. The compound further showed a CC50 at 72 h in data set [2] of 10 to 100 µM.
For `CC(C)N(c1cc(C#CC(F)(F)F)sc1C(=O)O)C(=O)[C@H]1CC[C@H](C)CC1` [Compound 23, 3-[Isopropyl-(trans-4-methyl-cyclohexanecarbonyl)-amino]-5-trifluoroprop-1-ynyl-thiophene-2-carboxylic acid], in that order: 0.1 to 1 µM and 10 to 100 µM.
As to `Cc1ccc(C(=O)N(c2cc(C#CC(C)(C)C)sc2C(=O)O)[C@H]2CC[C@H](O)CC2)c(Cl)c1` [Compound 84, 3-[(2-Chloro-4-methyl-benzoyl)-(trans-4-hydroxy-cyclohexyl)-amino]-5-(3,3-dimethyl-but-1-ynyl)-thiophene-2-carboxylic acid], the IC50 in data set [1] was < 0.1 µM.
For the compound `CC(C)(C)C#Cc1cc(N(C(=O)c2ccc(C(F)(F)F)cc2)[C@H]2CC[C@H](O)CC2)c(C(=O)O)s1` [Compound 82, 5-(3,3-Dimethyl-but-1-ynyl)-3-[(trans-4-hydroxy-cyclohexyl)-(4-trifluoromethyl-benzoyl)-amino]thiophene-2-carboxylic acid], the IC50 in data set [1] lay in the range of 0.1 to 1 µM. This compound showed a cytotoxic concentration (CC50) at 72 h in data set [2] of 10 to 100 µM.
For `Cc1ccc(C(=O)N(c2cc(C#CC(C)(C)C)sc2C(=O)O)[C@H]2CC[C@H](O)CC2)c(F)c1F` [Compound 89, 3-[(2,3-Difluoro-4-methyl-benzoyl)-(trans-4-hydroxy-cyclohexyl)-amino]-5-(3,3-dimethyl-but-1-ynyl)-thiophene-2-carboxylic acid], the IC50 in data set [1] was < 0.1 µM.
In the case of `CC(C)N(c1cc(C#Cc2ccccc2)sc1C(=O)O)C(=O)[C@H]1CC[C@H](C)CC1` [Compound 21, 3-[Isopropyl-(trans-4-methyl-cyclohexanecarbonyl)-amino]-5-phenylethynyl-thiophene-2-carboxylic acid], in data set [1], the IC50 lay within 1 to 10 µM. The compound further gave a CC50 at 72 h in data set [2] of 10 to 100 µM.
For `Cn1cc(CN(c2cc(C#CC(C)(C)C)sc2C(=O)O)C(=O)[C@H]2CC[C@H](C)CC2)cn1` [Compound 67, 5-(3,3-Dimethylbut-1-ynyl)-3-((trans)-4-methyl-N-((1-methyl-1H-pyrazol-4-yl)methyl)cyclohexanecarboxamido)thiophene-2-carboxylic acid], in that order: 0.1 to 1 µM and > 100 µM.
Taken in the same sequence, the figures for `Cn1ccc(CN(c2cc(C#CC(C)(C)C)sc2C(=O)O)C(=O)[C@H]2CC[C@H](C)CC2)n1` [Compound 71, 5-(3,3-Dimethylbut-1-ynyl)-3-((trans)-4-methyl-N-((1-methyl-1H-pyrazol-3-yl)methyl)cyclohexanecarboxamido)thiophene-2-carboxylic acid] were < 0.1 µM and 10 to 100 µM.
For `CC(C)(C)C#Cc1cc(N(C(=O)c2ccc(Cl)cc2)[C@H]2CC[C@H](O)CC2)c(C(=O)O)s1` [Compound 81, 3-[(4-Chloro-benzoyl)-(trans-4-hydroxy-cyclohexyl)-amino]-5-(3,3-dimethyl-but-1-ynyl)-thiophene-2-carboxylic acid], the 50% inhibitory concentration (IC50) in data set [1] fell in the range of 0.1 to 1 µM.
Consider `Cn1nccc1CN(c1cc(C#CC(C)(C)C)sc1C(=O)O)C(=O)[C@H]1CC[C@H](C)CC1` [Compound 77, 5-(3,3-Dimethylbut-1-ynyl)-3-((trans)-4-methyl-N-((1-methyl-1H-pyrazol-5-yl)methyl)cyclohexanecarboxamido)thiophene-2-carboxylic acid], for which the IC50 in data set [1] was < 0.1 µM. Moreover, in data set [2], the CC50 at 72 h is > 100 µM.
Taken in the same sequence, the figures for `COC(C)(C)C#Cc1cc(N(C(=O)[C@H]2CC[C@H](C)CC2)C(C)C)c(C(=O)O)s1` [Compound 22, 3-[Isopropyl-(trans-4-methyl-cyclohexanecarbonyl)-amino]-5-(3-methoxy-3-methyl-but-1-ynyl)-thiophene-2-carboxylic acid] were 0.1 to 1 µM and 10 to 100 µM.
Taken in the same sequence, the figures for `CC(C)(C)C#Cc1cc(N(C(=O)[C@H]2CC[C@H](C)CC2)C2CC=C(F)CC2)c(C(=O)O)s1` (relative stereo) [Compound 15, 5-(3,3-Dimethyl-but-1-ynyl)-3-[(4-fluoro-cyclohex-3-enyl)-(trans-4-methyl-cyclohexanecarbonyl)-amino]-thiophene-2-carboxylic acid] were < 0.1 µM and 10 to 100 µM.
For `CC(C)(C)C#Cc1cc(N(Cc2cccnc2)C(=O)[C@H]2CC[C@H](C)CC2)c(C(=O)O)s1` [Compound 1], in that order: < 0.1 µM and 10 to 100 µM.
Take `CN(C)C(=O)[C@H]1C[C@@H](N(c2cc(C#CC(C)(C)C)sc2C(=O)O)C(=O)[C@H]2CC[C@H](C)CC2)C1` [Compound 11, 5-(3,3-dimethylbut-1-yn-1-yl)-3-(trans-4-methyl-N-(cis-3-(dimethylcarbamoyl)cyclobutyl)cyclohexanecarboxamido)thiophene-2-carboxylic acid]: in data set [1], the IC50 is < 0.1 µM. Also, the CC50 at 72 h in data set [2] fell in the range of 10 to 100 µM.
Consider `Cc1ccccc1C(=O)N(c1cc(C#CC(C)(C)C)sc1C(=O)O)[C@H]1CC[C@H](O)CC1` [Compound 88, 5-(3,3-Dimethyl-but-1-ynyl)-3-[(trans-4-hydroxy-cyclohexyl)-(2-methyl-benzoyl)-amino]-thiophene-2-carboxylic acid], for which the half-maximal inhibitory concentration (IC50) in data set [1] fell in the range of 0.1 to 1 µM.
Regarding `Cc1ccc(C(=O)N(c2cc(C#CC(C)(C)C)sc2C(=O)O)[C@H]2CC[C@H](O)CC2)cc1` [Compound 86, 5-(3,3-Dimethyl-but-1-ynyl)-3-[(trans-4-hydroxy-cyclohexyl)-(4-methyl-benzoyl)-amino]-thiophene-2-carboxylic acid], the IC50 in data set [1] is < 0.1 µM. Moreover, the CC50 at 72 h in data set [2] lay within 10 to 100 µM.
For `CC(C)(C)C#Cc1cc(N(C(=O)c2ccc(Cl)cc2Cl)[C@H]2CC[C@H](O)CC2)c(C(=O)O)s1` [Compound 90, 3-[(2,4-Dichloro-benzoyl)-(trans-4-hydroxy-cyclohexyl)-amino]-5-(3,3-dimethyl-but-1-ynyl)-thiophene-2-carboxylic acid], in that order: 0.1 to 1 µM and 10 to 100 µM.
For `C=CCO[C@H]1CC[C@H](N(c2cc(C#CC(C)(C)C)sc2C(=O)O)C(=O)[C@H]2CC[C@H](C)CC2)CC1` [Compound 12, 3-[(trans-4-Allyloxy-cyclohexyl)-(trans-4-methyl-cyclohexanecarbonyl)-amino]-5-(3,3-dimethyl-but-1-ynyl)-thiophene-2-carboxylic acid], in that order: < 0.1 µM and 10 to 100 µM.
As to `CC(C)(C)C#Cc1cc(N(C(=O)c2ccc(Cl)c(F)c2)[C@H]2CC[C@H](O)CC2)c(C(=O)O)s1` [Compound 94, 3-[(4-Chloro-3-fluoro-benzoyl)-(trans-4-hydroxy-cyclohexyl)-amino]-5-(3,3-dimethyl-but-1-ynyl)-thiophene-2-carboxylic acid], the IC50 in data set [1] lay in the range of 0.1 to 1 µM.
For `CC(C)N(c1cc(C#CC2CCCCC2)sc1C(=O)O)C(=O)[C@H]1CC[C@H](C)CC1` [Compound 18, 5-Cyclohexylethynyl-3-[isopropyl-(trans-4-methyl-cyclohexanecarbonyl)-amino]-thiophene-2-carboxylic acid], the IC50 in data set [1] lay within 1 to 10 µM. Also, the CC50 at 72 h in data set [2] fell in the range of 10 to 100 µM.
For `CC(C)(C)C#Cc1cc(N(C(=O)c2ccc(F)cc2)[C@H]2CC[C@H](O)CC2)c(C(=O)O)s1` [Compound 92, 5-(3,3-Dimethyl-but-1-ynyl)-3-[(4-fluoro-benzoyl)-(trans-4-hydroxy-cyclohexyl)-amino]-thiophene-2-carboxylic acid], in data set [1], the IC50 was 1 to 10 µM.
On to `CC(C)(C)C#Cc1cc(N(C(=O)[C@H]2CC[C@H](C)CC2)[C@H]2C[C@@H](CO)C2)c(C(=O)O)s1` [Compound 76, 5-(3,3-dimethylbut-1-yn-1-yl)-3-(trans-4-methyl-N-(cis-3-(hydroxymethyl)cyclobutyl)cyclohexanecarboxamido)thiophene-2-carboxylic acid], for which the IC50 in data set [1] is < 0.1 µM. Besides, the CC50 at 72 h in data set [2] was > 100 µM.
For `CC(C)(C)C#Cc1cc(N(C(=O)[C@H]2CC[C@H](C)CC2)C2CC2)c(C(=O)O)s1` [Compound 16, 3-[Cyclopropyl-(trans-4-methyl-cyclohexanecarbonyl)-amino]-5-(3,3-dimethyl-but-1-ynyl)-thiophene-2-carboxylic acid], in that order: 0.1 to 1 µM and 10 to 100 µM.
For `CC(C)(C)C#Cc1cc(N(C(=O)c2ccccc2Cl)[C@H]2CC[C@H](O)CC2)c(C(=O)O)s1` [Compound 87, 3-[(2-Chloro-benzoyl)-(trans-4-hydroxy-cyclohexyl)-amino]-5-(3,3-dimethyl-but-1-ynyl)-thiophene-2-carboxylic acid], the IC50 in data set [1] was in the range of 1 to 10 µM.
On to `Cn1ccnc1CN(c1cc(C#CC(C)(C)C)sc1C(=O)O)C(=O)[C@H]1CC[C@H](C)CC1` [Compound 64, 5-(3,3-Dimethylbut-1-ynyl)-3-((trans)-4-methyl-N-((1-methyl-1H-imidazol-2-yl)methyl)cyclohexanecarboxamido)thiophene-2-carboxylic acid], for which the IC50 in data set [1] is < 0.1 µM. This compound displayed a 50% cytotoxic concentration (CC50) at 72 h in data set [2] of 10 to 100 µM.
Taken in the same sequence, the figures for `CC(C)(C)C#Cc1cc(N(C(=O)[C@H]2CC[C@H](C)CC2)[C@@H]2CCNC2)c(C(=O)O)s1` [Compound 58, 5-(3,3-Dimethylbut-1-yn-1-yl)-3-((trans)-4-methyl-N—((R)-pyrrolidin-3-yl)cyclohexanecarboxamido)thiophene-2-carboxylic acid] were < 0.1 µM and > 100 µM.
Take `Cc1nnc(CN(c2cc(C#CC(C)(C)C)sc2C(=O)O)C(=O)[C@H]2CC[C@H](C)CC2)o1` [Compound 24, 5-(3,3-Dimethyl-but-1-ynyl)-3-[(trans-4-methyl-cyclohexanecarbonyl)-(5-methyl-[1,3,4]oxadiazol-2-ylmethyl)-amino]-thiophene-2-carboxylic acid]: the CC50 at 72 h in data set [2] was < 10 µM.

What is called IC50 is the concentration that gives 50% inhibition. For orientation: CC50 means the concentration at which the toxic effect on the cells reaches its halfway point.

Values taken from patent publication US20140065103A1 (VERTEX PHARMACEUTICALS INCORPORATED, priority 2010, published 2014).
